In the supplement of paper PMC10307832:

Columns and labels:
Assay in all cases: relative viability (nuclei count vs DMSO), 5 days (fraction); higher = more cells survive
PAC-1 + Luminespib = compound: C=CCc1cccc(/C=N/NC(=O)CN2CCN(Cc3ccccc3)CC2)c1O [PAC-1] + CCNC(=O)c1noc(-c2cc(C(C)C)c(O)cc2O)c1-c1ccc(CN2CCOCC2)cc1 [Luminespib] (partner 0.01 µM)
In short: (§1)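 Medians of duplicate plates are given as relative viability. That measure is the nuclei count in treated wells divided by the count in vehicle wells. Counts were taken on 4× images of lung cancer cell lines in 1536-well plates, 5 days after pin-tool dosing the day after seeding with one drug alone or a fixed anchor-drug dose plus five library-drug doses (not always all listed) in √10 steps.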

Ibrutinib + Palbociclib = compound: C=CC(=O)N1CCC[C@@H](n2nc(-c3ccc(Oc4ccccc4)cc3)c3c(N)ncnc32)C1 [Ibrutinib] + CC(=O)c1c(C)c2cnc(Nc3ccc(N4CCNCC4)cn3)nc2n(C2CCCC2)c1=O [Palbociclib] (partner 0.5 µM)
In short: as §1

PAC-1 + Pictilisib = compound: C=CCc1cccc(/C=N/NC(=O)CN2CCN(Cc3ccccc3)CC2)c1O [PAC-1] + CS(=O)(=O)N1CCN(Cc2cc3nc(-c4cccc5[nH]ncc45)nc(N4CCOCC4)c3s2)CC1 [Pictilisib] (partner 1 µM)
In short: as §1

Ibrutinib + Lapatinib = compound: C=CC(=O)N1CCC[C@@H](n2nc(-c3ccc(Oc4ccccc4)cc3)c3c(N)ncnc32)C1 [Ibrutinib] + CS(=O)(=O)CCNCc1ccc(-c2ccc3ncnc(Nc4ccc(OCc5cccc(F)c5)c(Cl)c4)c3c2)o1 [Lapatinib] (partner 2 µM)
In short: as §1

Row | Cell Line | relative viability (PAC-1 + Luminespib; first compound 0.02 µM) | relative viability (PAC-1 + Luminespib; first compound 0.06325 µM) | relative viability (PAC-1 + Luminespib; first compound 0.2 µM) | relative viability (PAC-1 + Luminespib; first compound 2 µM) | relative viability (Ibrutinib + Palbociclib; first compound 0.005 µM) | relative viability (Ibrutinib + Palbociclib; first compound 0.01581 µM) | relative viability (Ibrutinib + Palbociclib; first compound 0.05 µM) | relative viability (Ibrutinib + Palbociclib; first compound 0.1581 µM) | relative viability (Ibrutinib + Palbociclib; first compound 0.5 µM) | relative viability (PAC-1 + Pictilisib; first compound 0.02 µM) | relative viability (PAC-1 + Pictilisib; first compound 0.06325 µM) | relative viability (PAC-1 + Pictilisib; first compound 0.2 µM) | relative viability (PAC-1 + Pictilisib; first compound 2 µM) | relative viability (Ibrutinib + Lapatinib; first compound 0.005 µM) | relative viability (Ibrutinib + Lapatinib; first compound 0.01581 µM) | relative viability (Ibrutinib + Lapatinib; first compound 0.05 µM) | relative viability (Ibrutinib + Lapatinib; first compound 0.1581 µM) | relative viability (Ibrutinib + Lapatinib; first compound 0.5 µM)
1 | NCI-H520 | 0.269 | 0.248 | 0.252 | 0.216 | 0.183 | 0.217 | 0.206 | 0.237 | 0.161 | 0.266 | 0.303 | 0.256 | 0.35 | 0.788 | 0.789 | 0.934 | 0.907 | 0.78
2 | NCI-H647 | 0.103 | 0.123 | 0.286 | 0.16 | 0.334 | 0.385 | 0.305 | 0.374 | 0.538 | 0.417 |  | 0.417 | 0.331 | 0.799 | 0.934 | 1.06 | 1.11 | 1.19
3 | NCI-H650 | 0.701 | 0.929 | 0.882 | 0.748 | 0.399 | 0.303 | 0.415 | 0.414 | 0.358 | 1.07 | 0.951 | 0.86 | 0.874 |  | 0.867 |  | 1 | 0.883
4 | NCI-H661 | 0.951 | 0.882 | 0.821 | 0.736 | 0.365 | 0.337 | 0.332 | 0.366 | 0.304 | 0.392 | 0.351 | 0.33 | 0.371 | 0.414 | 0.504 | 0.489 | 0.571 | 0.426
5 | NCI-H727 | 0.255 | 0.371 | 0.639 | 0.315 | 0.593 | 0.593 | 0.644 | 0.644 | 0.505 | 0.338 | 0.525 | 0.453 | 0.283 | 0.734 | 0.735 | 1.2 | 0.496 | 0.852
6 | NCI-H838 | 0.254 | 0.374 | 0.238 | 0.301 | 0.178 | 0.209 | 0.202 | 0.202 | 0.234 | 0.427 | 0.526 | 0.387 | 0.455 | 0.796 | 0.893 | 1 | 0.894 | 1.08
7 | NCI-H1355 | 0.762 | 0.668 | 0.797 | 0.778 |  | 0.362 | 0.359 | 0.422 | 0.295 | 0.386 | 0.475 | 0.393 | 0.492 |  | 0.975 | 1.07 | 0.92 | 0.963
8 | NCI-H1395 | 0.656 | 0.585 | 0.651 | 0.653 | 0.55 | 0.672 | 0.648 | 0.623 | 0.612 | 0.603 | 0.677 | 0.61 | 0.602 | 1.1 | 1.04 | 1.04 | 0.869 | 1.05
9 | NCI-H1437 | 1.15 | 1.13 | 1.06 | 0.907 | 0.336 | 0.307 | 0.307 | 0.235 | 0.374 | 0.495 | 0.474 | 0.415 | 0.391 | 0.799 | 0.677 | 0.775 | 0.604 | 0.893
10 | NCI-H1650 | 0.191 | 0.199 | 0.209 | 0.191 | 0.382 | 0.305 | 0.314 | 0.436 | 0.243 | 0.53 | 0.608 | 0.582 | 0.515 | 0.685 | 0.734 | 0.843 | 0.682 | 0.844
11 | NCI-H1651 | 0.789 | 0.859 | 0.744 | 0.905 | 0.529 | 0.5 | 0.533 | 0.489 | 0.51 | 0.579 | 0.647 | 0.59 | 0.535 | 0.699 | 0.756 | 0.796 | 0.723 | 0.906
12 | NCI-H1666 | 0.981 | 1.08 | 1.08 | 0.864 | 0.647 | 0.692 | 0.639 | 0.631 | 0.659 | 0.501 | 0.398 | 0.358 | 0.427 | 0.722 | 0.583 | 0.814 | 0.749 | 0.761
13 | NCI-H1734 | 0.169 | 0.178 | 0.18 | 0.189 | 0.374 | 0.332 | 0.384 | 0.346 | 0.357 | 0.446 | 0.448 | 0.431 | 0.468 | 0.843 | 1.01 | 1.14 | 1.19 | 1.04
14 | NCI-H1755 | 0.482 | 0.306 | 0.502 | 0.563 | 0.473 | 0.442 | 0.467 | 0.455 | 0.495 | 0.445 | 0.434 | 0.391 | 0.438 |  | 0.991 | 1.08 | 0.981 | 1.05
15 | NCI-H1792 | 0.355 | 0.484 | 0.47 | 0.416 |  | 0.593 | 0.757 |  | 0.683 | 0.319 | 0.279 | 0.287 | 0.285 | 0.907 | 0.896 | 0.913 | 0.73 | 0.912
16 | NCI-H1793 | 0.207 | 0.216 | 0.164 | 0.17 | 0.251 | 0.247 | 0.238 | 0.31 | 0.243 | 0.344 | 0.345 | 0.254 | 0.332 |  | 0.796 | 0.819 | 0.58 | 0.577
17 | NCI-H1915 | 0.792 | 0.845 | 0.68 | 0.779 | 0.519 | 0.517 | 0.554 | 0.506 | 0.532 | 0.875 | 1.02 | 0.929 | 0.951 |  | 0.987 | 1.01 | 1.06 | 1.06
18 | NCI-H1944 | 0.766 | 0.685 | 0.765 | 0.701 | 0.297 | 0.285 | 0.273 | 0.301 | 0.255 | 0.3 | 0.345 | 0.323 | 0.33 | 0.818 | 0.818 | 0.771 | 0.7 | 0.844
